BindingDB's records for doi:10.1111/cbdd.12751 (Shandong University, 2016)
pIC50: −log10 of the molar value.

These compounds were tested against Gag-Pol polyprotein (Human immunodeficiency virus type 1 group M subtype B (isolate NY5), UniProt P12497) (assay: HIV-1 RT Inhibition Assay). Details: 37 °C.
Description: A reverse transcriptase (RT) assay kit produced by Roche was selected for the RT inhibition assay. All the reagents for performing the RT reaction came with the kit, and the ELISA procedures for RT inhibition assay were carried out following the description in the kit protocol. Briefly, the reaction mixture containing template/primer complex, viral nucleotides (dNTPs), and RT in the incubation buffer with or without inhibitors was incubated for 1 h at 37 °C. After that, the reaction mixture was transferred to a streptavidincoated microtiter plate and incubated for another 1 h at 37 °C to make sure that retranscriptional cDNA chain consisted of biotin-labeled dNTPs bound to streptavidin. Then, unbound dNTPs were removed using washing buffer and anti-DIG-POD working solution was added. After incubation for 1 h at 37 °C, the DIG-labeled dNTPs incorporated into cDNA were bound to the anti-DIG-POD antibody. The unbound anti-DIG-PODs were removed.

First: NS(=O)(=O)c1ccc(NC(=O)CSc2nc3ncccc3n2-c2ccc(C3CC3)c3ccccc23)c(Br)c1 [N-(2-Bromo-4-sulfonamido-phenyl)-2-(1-(4-cyclopropylnaphthalen-1-yl)-1H-imidazo[4,5-b]pyridin-2-ylthio)acetamide (12)]
Second: Cc1ccnc2c1NC(=O)c1cccnc1N2C1CC1 [BI-RG-587]
The pIC50 of the first is 0.34 log units lower: 5.82 for the first, 6.16 for the second.

`Cc1cc(C#N)cc(C)c1Oc1nc(Nc2ccc(C#N)cc2)nc(N)c1Br` showed a pIC50 of 6.43.
